How the values were obtained:
mammalian cell lines = conditions: cited from earlier work
[1] = mouse, in vivo, 40 mg/kg
TLR3 = experiment: Cytokine production (TNFα, IL-6) of murine macrophage Raw264.7 stimulated with poly I:C; assay type: cell-based; conditions: TNFα and IL-6 by ELISA
[2] = mouse, in vivo; cited from earlier work

| Substance | cytotoxicity (remark) (mammalian cell lines) | concentration inducing over 50% cell death (Raw264.7 cells) | adverse effects on viability of mice [1] | further results |
| --- | --- | --- | --- | --- |
| Poly(allylamine) [PAL] | 1. Commercially available. 2. Highly positive charged 3. Low toxicity. | – | – | – |
| Polyethyleneimine [PEI] | 3. high cytotoxicity. | – | – | – |
| polyamidoamine dendrimer, 1,4-diaminobutane core, G3 [PAMAM] | – | about 160 μg/ml | no adverse effects on viability | – |
| protamine [reference compound] | – | ~280 µg/mL | – | effect on poly I:C (TLR3 ligand) induced inflammatory cytokine production (TLR3): did not block but significantly enhanced |
| β-cyclodextrin-containing polycation [CDP] | – | – | no adverse effects on viability | tolerability on macrophages (Raw264.7 cells): well tolerated; LD50 [2]: 200 mg/kg |

From US9468650B2, “Inhibition of endosomal toll-like receptor activation” (DUKE UNIVERSITY, priority 2009, dated 2016)
